What was measured:
neuronal cell cultures = assay: Neuroprotection against glutamate toxicity in neuronal cell cultures, measured by LDH release; format: cell-based; details: for LDH release: mean ± s.e., 18 hours after glutamate exposure
Procedure: (§1) One particularly valuable enantiomer of the invention is the (+)-8 compound designated SNC80. […] To obtain better understanding of the benefits obtained by use of the compounds of the invention, beneficial effects of the compound were assessed in a model for evaluation of CNS excito-toxicity in an in vitro neuronal culture model. The neurotoxicity/neuroprotection was assessed 18 hours after exposure to the excitotoxin glutamate.
The neuroprotective effect of the SNC80 against glutamate toxicity in neuronal cell cultures was determined using a standard method of quantifying neuronal damage by measuring LDH release, since LDH is a […] enzyme released from damaged neurons into the culture media when neuronal cells are injured. One way in which neuronal cells may be damaged is by exposure to glutamate, a common agent used to induce neuronal damage. In the instant case, the damaging effect of gluamate on these cultures as shown to be overcome by exposure to an active agent of the invention.

neurons = assay: Antagonism of glutamate neurotoxic calcium flux (intracellular calcium response type); format: cell-based
Procedure: as §1

[1] = Convulsive activity after intracerebral ventricular dosing; format: in vivo; details: rats; intracerebral ventricular dosages up to 800 μg
[2] = Glutamate (80 μM) + SNC80 20 μM
[3] = Glutamate (80 μM) + SNC80 40 μM

## C=CCN1C[C@H](C)N([C@H](c2ccc(C(=O)N(CC)CC)cc2)c2cccc(OC)c2)C[C@H]1C [SNC80]
Neuronal cell cultures; 18 hours after exposure to glutamate, compared to glutamate alone
  Neuroprotection (LDH measurements and morphological evaluation): concentration-dependent neuroprotection
Neuronal cell cultures; Glutamate (80 μM) + SNC80 5 μM
  % neuroprotection: 17%
  LDH release: 98.6 ± 4.5 Units ML
Neuronal cell cultures; [2]
  % neuroprotection: 43%
  LDH release: 91.0 ± 2.0 Units ML
Neuronal cell cultures; [3]
  % neuroprotection: 63%
  LDH release: 84.7 ± 3.4 Units ML
neurons; Glutamate + 50 μM, 10 neurons
  Response Type biphasic (number of neurons): 6
  Response Type sustained (neurotoxic) (number of neurons): 1
  Response Type transient (number of neurons): 3
neurons; Glutamate + 100 μM, 21 neurons
  Response Type biphasic (number of neurons): 17
  Response Type sustained (neurotoxic) (number of neurons): 1
  Response Type transient (number of neurons): 3
neurons; glutamate-treated neurons
  Intracellular Ca++ concentration as indicator of glutamate-induced neuronal injury: beneficial shift in the intracellular Ca^++ concentration
[1]
  Convulsive activity: failed to elicit convulsive activity
